# Experimental data published in patent US11691992B2 (Anacor Pharmaceuticals, Inc., priority 2017, dated 2023).
# Legend:
# [1] = system: TdTomato-modified T. cruzi (CL strain) in Vero cells; assay: In vitro IC50 measurement of T. cruzi amastigote killing using TdTomato-modified T. cruzi (CL strain); format: cell-based; settings: Trypanosoma cruzi, 72 h, fluorescence, read-out: IC50: I Org. amastigote Growth T. cruzi CL TdTomato, 3 d
# How it was run: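 Vero cells were infected with tdTomato-expressing CL-strain parasites and dosed at 5 uM–5 nM. Fluorescence (ex 544/em 612 nm) was read at day 0 and again after 72 h at 37 °C, with day 0 values subtracted. IC50 and IC90 came from nonlinear regression.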
# [2] = system: promastigote forms of L. major; assay: Leishmania major promastigote growth inhibition assay (Alamar Blue); format: cell-based; settings: promastigotes, 44 hours + 4 hours Alamar Blue, read-out: IC50: I Org. promastigote Growth L. major, 2 d
# Text: Example 108. Leishmania major Promastigote Growth Inhibition Assay
# The promastigote assay is a microtiter plate drug sensitivity prescreen assay used to determine antileishmanial activity of candidate drugs against promastigote forms of L. major. (Shadow et al., PLOS Neglected Tropical Diseases, 2009, e311.) Alamar Blue, or resazurin, is a non-fluorescent indicator dye that is converted to bright red-fluorescent resorufin via the activity of mitochondrial reductases. As the activity of mitochondrial reductases is reduced in cells that are dead or dying, and the intensity of the fluorescence is relative to cell number, a test compound that kills or inhibits growth of a particular target cell, such as L. major, will result in a lower production of fluorescent signal. Pre-dosed microtiter drug plates for use in the promastigote drug prescreen assay were produced using sterile 384-well black optical bottom tissue culture plates (Nunc Cat #12-565-344). Candidate drugs were diluted in dimethyl sulfoxide in four 96-well plates to either 10,000 ng/ml or 1,000 ng/ml, and 4.25 μL of diluted drug was subsequently dispensed into each well of a 384-well plate. Duplicate 384 well plates were made at each test concentration (10,000 ng/mL and 1,000 ng/mL) and amphotericin B was used as a batch control. The Tecan EVO Freedom liquid handling system (Tecan US, Inc., Durham, N.C.) was used to produce all drug assay plates and conduct all pipetting operations for this assay. L. major parasites were cultured in Schneider's medium (Lonza Cat #04-351Q) supplemented with 20% heat inactivated FBS (Invitrogen Cat #16140-089). Promastigotes in early log growth phase were harvested from culture, counted, suspended at 1.32×10^5 cells/mF and 5,000 promastigotes were dispensed into each well of the 384 well plate in a volume of 38.8 μL. The 384 well plates were subsequently incubated at 28° C. for 44 hours. 8.4 μF of Alamar Blue (Promega, Cat #G8081) was added to each well, the plates were subsequently incubated at 28° C. and 5% CO2 for 4 hours and then examined for the relative fluorescence units (RFU) per well using the Tecan Genios Plus (Tecan US, Inc., Durham, N.C.) with excitation set at 560 nm and emission set at 590 nm. The relative fluorescence from each well was used to determine the percent growth inhibition of each candidate compound tested. Compounds with 50% or greater inhibition of growth were selected for further analysis to determine IC50 values.
compound,measurement,setting,value
"COc1ccc(-n2cc(C(=O)Nc3ccc4c(c3)B(O)OC4C)nn2)cc1 (stereo not drawn) [Example 22, N-(1-hydroxy-3-methyl-1,3-dihydrobenzo[c][1,2]oxaborol-6-yl)-1-(4-methoxyphenyl)-1H-1,2,3-triazole-4-carboxamide]",IC50,[1],< 600 nM
same,IC50,[2],< 600 nM
Cc1c(C(=O)Nc2ccc3c(c2)B(O)OC3C)nnn1-c1cccnc1 (stereo not drawn) [Example 14],IC50,[1],1100 to 10000 nM
same,IC50,[2],2510 to 20000 nM
Cc1ccc(-n2cc(C(=O)Nc3ccc4c(c3)B(O)OC43CCC3)nn2)cc1 [Example 15],IC50,[1],1100 to 10000 nM
same,IC50,[2],2510 to 20000 nM
"Cc1ccc(-n2cc(C(=O)Nc3ccc4c(c3)B(O)OC4)nn2)cc1 [Example 10, N-(1-hydroxy-1,3-dihydrobenzo[c][1,2]oxaborol-6-yl)-1-(p-tolyl)-1H-1,2,3-triazole-4-carboxamide]",IC50,[1],< 600 nM
same,IC50,[2],< 600 nM
"Cc1c(C(=O)Nc2ccc3c(c2)B(O)OC3)nnn1-c1cccnc1 [Example 93, N-(1-hydroxy-1,3-dihydrobenzo[c][1,2]oxaborol-6-yl)-5-methyl-1-(pyridin-3-yl)-1H-1,2,3-triazole-4-carboxamide]",IC50,[1],1100 to 10000 nM
same,IC50,[2],2510 to 20000 nM
"Cc1ccc(-n2nnc(C(=O)Nc3ccc4c(c3)B(O)OC4C)c2C)cc1 (stereo not drawn) [Example 13, N-(1-hydroxy-3-methyl-1,3-dihydrobenzo[c][1,2]oxaborol-6-yl)-5-methyl-1-(p-tolyl)-1H-1,2,3-triazole-4-carboxamide]",IC50,[1],600 to 1000 nM
same,IC50,[2],600 to 2500 nM
"O=C(Nc1ccc2c(c1)B(O)OC21CCC1)c1cn(-c2ccccn2)nn1 [Example 26, N-(1-hydroxy-1H-spiro[benzo[c][1,2]oxaborole-3,1′-cyclobutan]-6-yl)-1-(pyridin-2-yl)-1H-1,2,3-triazole-4-carboxamide]",IC50,[1],1100 to 10000 nM
same,IC50,[2],2510 to 20000 nM
"COc1ccc(-n2cc(C(=O)Nc3ccc4c(c3)B(O)OC43CCC3)nn2)cc1 [Example 25, N-(1-hydroxy-1H-spiro[benzo[c][1,2]oxaborole-3,1′-cyclobutan]-6-yl)-1-(4-methoxyphenyl)-1H-1,2,3-triazole-4-carboxamide]",IC50,[1],600 to 1000 nM
same,IC50,[2],2510 to 20000 nM
"Cc1ccc(-n2nnc(C(=O)Nc3ccc4c(c3)B(O)OC4)c2C)cc1 [Example 11, N-(1-hydroxy-1,3-dihydrobenzo[c][1,2]oxaborol-6-yl)-5-methyl-1-(p-tolyl)-1H-1,2,3-triazole-4-carboxamide]",IC50,[1],1100 to 10000 nM
same,IC50,[2],< 600 nM
"Cc1c(C(=O)Nc2ccc3c(c2)B(O)OC3C)nnn1-c1ccc(F)cc1 (stereo not drawn) [Example 6, 1-(4-fluorophenyl)-N-(1-hydroxy-3-methyl-1,3-dihydrobenzo[c][1,2]oxaborol-6-yl)-5-methyl-1H-1,2,3-triazole-4-carboxamide]",IC50,[1],600 to 1000 nM
same,IC50,[2],600 to 2500 nM
"Cc1c(C(=O)Nc2ccc3c(c2)B(O)OC3)nnn1-c1ccccn1 [Example 84, N-(1-hydroxy-1,3-dihydrobenzo[c][1,2]oxaborol-6-yl)-5-methyl-1-(pyridin-2-yl)-1H-1,2,3-triazole-4-carboxamide]",IC50,[1],600 to 1000 nM
same,IC50,[2],< 600 nM
"Cc1c(C(=O)Nc2ccc3c(c2)B(O)OC32CCC2)nnn1-c1cccnc1 [Example 17, N-(1-hydroxy-1H-spiro[benzo[c][1,2]oxaborole-3,1′-cyclobutan]-6-yl)-5-methyl-1-(pyridin-3-yl)-1H-1,2,3-triazole-4-carboxamide]",IC50,[1],1100 to 10000 nM
same,IC50,[2],2510 to 20000 nM
"O=C(Nc1ccc2c(c1)B(O)OC2)c1cn(-c2ccccn2)nn1 [Example 61, N-(1-hydroxy-1,3-dihydrobenzo[c][1,2]oxaborol-6-yl)-1-(pyridin-2-yl)-1H-1,2,3-triazole-4-carboxamide]",IC50,[1],< 600 nM
same,IC50,[2],< 600 nM
"O=C(Nc1ccc2c(c1)B(O)OC21CCC1)c1cn(-c2ccc(F)cc2)nn1 [Example 7, 1-(4-fluorophenyl)-N-(1-hydroxy-1H-spiro[benzo[c][1,2]oxaborole-3,1′-cyclobutan]-6-yl)-1H-1,2,3-triazole-4-carboxamide]",IC50,[1],1100 to 10000 nM
same,IC50,[2],2510 to 20000 nM
"COc1ccc(-n2nnc(C(=O)Nc3ccc4c(c3)B(O)OC43CCC3)c2C)cc1 [Example 20, N-(1-hydroxy-1H-spiro[benzo[c][1,2]oxaborole-3,1′-cyclobutan]-6-yl)-1-(4-methoxyphenyl)-5-methyl-1H-1,2,3-triazole-4-carboxamide]",IC50,[1],1100 to 10000 nM
same,IC50,[2],< 600 nM
"Cc1ccc(-n2nnc(C(=O)Nc3ccc4c(c3)B(O)OC43CCC3)c2C)cc1 [Example 16, N-(1-hydroxy-1H-spiro[benzo[c][1,2]oxaborole-3,1′-cyclobutan]-6-yl)-5-methyl-1-(p-tolyl)-1H-1,2,3-triazole-4-carboxamide]",IC50,[1],1100 to 10000 nM
same,IC50,[2],600 to 2500 nM
CC1OB(O)c2cc(NC(=O)c3cn(-c4ccccc4)nn3)ccc21 (stereo not drawn) [Example 2],IC50,[1],< 600 nM
same,IC50,[2],< 600 nM
"CC1OB(O)c2cc(NC(=O)c3cn(-c4ccccn4)nn3)ccc21 (stereo not drawn) [Example 23, N-(1-hydroxy-3-methyl-1,3-dihydrobenzo[c][1,2]oxaborol-6-yl)-1-(pyridin-2-yl)-1H-1,2,3-triazole-4-carboxamide]",IC50,[1],< 600 nM
same,IC50,[2],< 600 nM
"CC1OB(O)c2cc(NC(=O)c3cn(-c4cccnc4)nn3)ccc21 (stereo not drawn) [Example 12, N-(1-hydroxy-3-methyl-1,3-dihydrobenzo[c][1,2]oxaborol-6-yl)-1-(pyridin-3-yl)-1H-1,2,3-triazole-4-carboxamide]",IC50,[1],600 to 1000 nM
same,IC50,[2],2510 to 20000 nM
"COc1ccc(-n2nnc(C(=O)Nc3ccc4c(c3)B(O)OC4)c2C)cc1 [Example 91, N-(1-hydroxy-1,3-dihydrobenzo[c][1,2]oxaborol-6-yl)-1-(4-methoxyphenyl)-5-methyl-1H-1,2,3-triazole-4-carboxamide]",IC50,[2],< 600 nM
"Cc1c(C(=O)Nc2ccc3c(c2)B(O)OC32CCC2)nnn1-c1ccc(F)cc1 [Example 9, 1-(4-fluorophenyl)-N-(1-hydroxy-1H-spiro[benzo[c][1,2]oxaborole-3,1′-cyclobutan]-6-yl)-5-methyl-1H-1,2,3-triazole-4-carboxamide]",IC50,[1],1100 to 10000 nM
same,IC50,[2],600 to 2500 nM
"Cc1c(C(=O)Nc2ccc3c(c2)B(O)OC3C)nnn1-c1ccccn1 (stereo not drawn) [Example 24, N-(1-hydroxy-3-methyl-1,3-dihydrobenzo[c][1,2]oxaborol-6-yl)-5-methyl-1-(pyridin-2-yl)-1H-1,2,3-triazole-4-carboxamide]",IC50,[1],< 600 nM
same,IC50,[2],600 to 2500 nM
"O=C(Nc1ccc2c(c1)B(O)OC21CCC1)c1cn(-c2cccnc2)nn1 [Example 8, N-(1-hydroxy-1H-spiro[benzo[c][1,2]oxaborole-3,1′-cyclobutan]-6-yl)-1-(pyridin-3-yl)-1H-1,2,3-triazole-4-carboxamide]",IC50,[1],1100 to 10000 nM
same,IC50,[2],2510 to 20000 nM
CC1OB(O)c2cc(NC(=O)c3cn(-c4ccc(F)cc4)nn3)ccc21 (stereo not drawn) [Example 5],IC50,[1],600 to 1000 nM
same,IC50,[2],600 to 2500 nM
"Cc1c(C(=O)Nc2ccc3c(c2)B(O)OC32CCC2)nnn1-c1ccccc1 [Example 4, N-(1-hydroxy-1H-spiro[benzo[c][1,2]oxaborole-3,1′-cyclobutan]-6-yl)-5-methyl-1-phenyl-1H-1,2,3-triazole-4-carboxamide]",IC50,[1],600 to 1000 nM
same,IC50,[2],600 to 2500 nM
"Cc1ccc(-n2cc(C(=O)Nc3ccc4c(c3)B(O)OC4C)nn2)cc1 (stereo not drawn) [Example 18, N-(1-hydroxy-3-methyl-1,3-dihydrobenzo[c][1,2]oxaborol-6-yl)-1-(p-tolyl)-1H-1,2,3-triazole-4-carboxamide]",IC50,[1],< 600 nM
same,IC50,[2],600 to 2500 nM
"COc1ccc(-n2nnc(C(=O)Nc3ccc4c(c3)B(O)OC4C)c2C)cc1 (stereo not drawn) [Example 19, N-(1-hydroxy-3-methyl-1,3-dihydrobenzo[c][1,2]oxaborol-6-yl)-1-(4-methoxyphenyl)-5-methyl-1H-1,2,3-triazole-4-carboxamide]",IC50,[1],600 to 1000 nM
same,IC50,[2],600 to 2500 nM
"O=C(Nc1ccc2c(c1)B(O)OC21CCC1)c1cn(-c2ccccc2)nn1 [Example 3, N-(1-hydroxy-1H-spiro[benzo[c][1,2]oxaborole-3,1′-cyclobutan]-6-yl)-1-phenyl-1H-1,2,3-triazole-4-carboxamide]",IC50,[1],1100 to 10000 nM
same,IC50,[2],600 to 2500 nM
"COc1ccc(-n2cc(C(=O)Nc3ccc4c(c3)B(O)OC4)nn2)cc1 [Example 21, N-(1-hydroxy-1,3-dihydrobenzo[c][1,2]oxaborol-6-yl)-1-(4-methoxyphenyl)-1H-1,2,3-triazole-4-carboxamide]",IC50,[1],< 600 nM
same,IC50,[2],< 600 nM
